Assay results: PMC7288026, “Novel Class of Chalcone Oxime Ethers as Potent Monoamine Oxidase-B and Acetylcholinesterase Inhibitors” (Molecules, 2020)
Values joined by “and” are separate entries in the source; they are usually repeats but may differ in a detail not shown here. Equal entries are not always repeated. Where two headings read alike, the source gives them in different places.

Experiments:
recombinant hMAO-A = target: T1, recombinant hMAO-A (Homo sapiens, UniProt P21397); assay: MAO-A inhibition assay (kynuramine substrate); assay type: biochemical; details: for remaining activity at 1 µM: compound at 1.0 µM, mean ± standard error of duplicate experiments, read-out: Residual Activity (%) MAO-A (1.0 µM); for IC50: mean ± standard error of duplicates, reference compounds after 30 min preincubation with enzyme
T1 construct: purchased Sigma-Aldrich
T1 sequence (P21397 1-527): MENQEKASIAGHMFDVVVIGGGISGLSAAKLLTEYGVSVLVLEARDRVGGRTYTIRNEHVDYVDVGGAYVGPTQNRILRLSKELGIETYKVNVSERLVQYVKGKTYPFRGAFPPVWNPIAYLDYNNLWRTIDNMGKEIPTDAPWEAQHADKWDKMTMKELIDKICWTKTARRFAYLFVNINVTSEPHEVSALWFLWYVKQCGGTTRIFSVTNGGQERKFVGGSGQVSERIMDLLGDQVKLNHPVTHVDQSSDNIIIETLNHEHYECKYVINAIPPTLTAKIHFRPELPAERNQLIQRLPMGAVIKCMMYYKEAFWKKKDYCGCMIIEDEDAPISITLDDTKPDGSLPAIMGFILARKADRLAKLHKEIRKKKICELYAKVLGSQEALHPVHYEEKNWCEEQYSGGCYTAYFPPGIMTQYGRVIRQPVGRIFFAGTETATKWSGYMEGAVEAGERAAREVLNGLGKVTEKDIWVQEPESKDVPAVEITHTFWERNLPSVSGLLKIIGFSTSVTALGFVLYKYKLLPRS
Protocol: (§1) Recombinant hMAO-A and hMAO-B activities were assayed while using kynuramine (0.06 mM) and benzylamine (0.3 mM) as substrates, respectively, as described previously. […] AChE activity was measured using Type VI-S from Electrophorus electricus in the presence of 0.5 mM 5,5’-dithiobis(2-nitrobenzoic acid) and 0.5 mM acetylthiocholine iodide, as described previously. Enzymes and chemicals were purchased from Sigma–Aldrich (St. Louis, MO, USA).
(§2) AChE inhibitory activities were also determined, except at a concentration of 10 µM. […] Kinetic experiments were carried out at five substrate and three inhibitor concentrations.

MAO-B [1] = target: T2, MAO-B (Homo sapiens, UniProt P27338); assay: biochemical; details: for IC50: mean ± standard error of duplicates, reference compounds after 30 min preincubation with enzyme, read-out: IC50 (µM) MAO-B; for remaining activity at 1 µM: read-out: Residual Activity (%) MAO-B (1.0 µM); for SI (selectivity index, ratio of IC50 MAO-A to MAO-B): MAO-A vs. MAO-B IC50 ratio
T2 construct: purchased Sigma-Aldrich
T2 sequence (P27338 1-520): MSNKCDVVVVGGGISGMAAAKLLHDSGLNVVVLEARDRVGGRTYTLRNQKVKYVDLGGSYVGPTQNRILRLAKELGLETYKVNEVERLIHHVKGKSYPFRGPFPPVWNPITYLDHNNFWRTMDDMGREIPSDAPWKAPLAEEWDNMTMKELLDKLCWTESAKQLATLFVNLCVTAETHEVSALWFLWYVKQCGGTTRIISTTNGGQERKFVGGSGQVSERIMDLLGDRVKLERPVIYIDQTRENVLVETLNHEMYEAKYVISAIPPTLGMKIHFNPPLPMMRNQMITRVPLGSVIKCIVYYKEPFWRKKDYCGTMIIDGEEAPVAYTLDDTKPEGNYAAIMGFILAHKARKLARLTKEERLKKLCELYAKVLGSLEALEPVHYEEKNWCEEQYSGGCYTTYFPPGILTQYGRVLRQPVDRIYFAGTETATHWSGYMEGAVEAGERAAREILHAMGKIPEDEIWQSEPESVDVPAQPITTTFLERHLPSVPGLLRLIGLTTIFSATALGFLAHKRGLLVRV
Protocol: as §1, with “USA). […]” for “USA).”

[2] = target: T3, AChE (Type VI-S from Electrophorus electricus) (Electrophorus electricus, UniProt O42275); assay: AChE inhibition assay (DTNB / acetylthiocholine iodide); assay type: biochemical; details: for remaining activity at 10 µM: compound at 10 µM, mean ± standard error of duplicate experiments, read-out: Residual Activity (%) AChE (10 µM)
T3 construct: purchased Sigma-Aldrich Type VI-S
Protocol: AChE activity was measured using Type VI-S from Electrophorus electricus in the presence of 0.5 mM 5,5’-dithiobis(2-nitrobenzoic acid) and 0.5 mM acetylthiocholine iodide, as described previously. Enzymes and chemicals were purchased from Sigma–Aldrich (St. Louis, MO, USA).
Kinetic experiments were carried out at five substrate and three inhibitor concentrations.

MAO-B [3] = target: T2, MAO-B; assay: Kinetics of MAO-B inhibition (Lineweaver-Burk and secondary plots); assay type: biochemical; details: for Mode of MAO-B inhibition: Lineweaver-Burk plots; for Ki: competitive inhibition, secondary plots of slopes vs. inhibitor concentration
Protocol: as §2

MAO-B [4] = target: T2, MAO-B; assay: Reversibility of MAO-B inhibition by dialysis; assay type: biochemical; details: for Reversibility of MAO-B inhibition: dialysis method
Text: Relative activities of undialyzed (AU) and dialyzed (AD) samples were used to determine the reversibilities.

MAO-B [5] = target: T2, MAO-B; details: read-out: IC50 MAO-B of earlier chalcone derivative; cited from earlier work

T3 sequence (O42275 24-633): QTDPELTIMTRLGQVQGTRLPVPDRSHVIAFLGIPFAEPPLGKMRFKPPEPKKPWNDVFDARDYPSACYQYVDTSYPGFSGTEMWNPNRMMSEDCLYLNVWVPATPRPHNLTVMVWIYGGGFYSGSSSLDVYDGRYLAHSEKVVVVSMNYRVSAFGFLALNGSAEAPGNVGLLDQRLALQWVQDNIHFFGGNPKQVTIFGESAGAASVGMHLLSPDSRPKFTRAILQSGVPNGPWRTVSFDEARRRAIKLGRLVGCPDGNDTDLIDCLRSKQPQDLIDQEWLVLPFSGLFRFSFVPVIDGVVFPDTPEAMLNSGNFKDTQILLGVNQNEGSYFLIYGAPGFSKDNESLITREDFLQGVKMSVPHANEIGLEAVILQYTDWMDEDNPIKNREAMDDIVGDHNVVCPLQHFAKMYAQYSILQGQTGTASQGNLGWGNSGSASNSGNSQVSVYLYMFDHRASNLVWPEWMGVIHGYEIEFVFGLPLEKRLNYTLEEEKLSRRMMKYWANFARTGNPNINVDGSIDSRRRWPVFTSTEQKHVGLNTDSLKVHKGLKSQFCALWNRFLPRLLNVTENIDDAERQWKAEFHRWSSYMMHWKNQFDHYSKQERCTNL

SMILES	remaining activity at 1 µM (recombinant hMAO-A)	IC50 (MAO-B [1])	remaining activity at 1 µM (MAO-B [1])	remaining activity at 10 µM [2]	Mode of MAO-B inhibition (MAO-B [3])	Ki (MAO-B [3])	Reversibility of MAO-B inhibition (MAO-B [4])	IC50 (MAO-B [5])	IC50 (recombinant hMAO-A)	MAO-B potency relative to clorgyline (times more potent) (MAO-B [1])	MAO-B potency relative to lazabemide (times more potent) (MAO-B [1])	MAO-B potency relative to pargyline (times more potent) (MAO-B [1])	SI (selectivity index, ratio of IC50 MAO-A to MAO-B) (MAO-B [1])	IC50 [2]	Relative MAO-B activity, dialyzed (AD) (MAO-B [4]; ~2 × IC50 of inhibitor, 30 min preincubation, after dialysis)	Relative MAO-B activity, undialyzed (AU) (MAO-B [4]; ~2 × IC50 of inhibitor, 30 min preincubation, undialyzed)
COc1ccc(/C=C/C(=N/Oc2ccc(/C=C/C(=O)c3ccc(F)cc3)cc2)c2ccc(OC)cc2)cc1 [COE-22]	81.8 ± 0.99%	0.028 ± 0.0042 µM	5.47 ± 0.21%	< 50%	competitively inhibited	10 nM	reversible inhibitors									
CCO/C(C)=N/Oc1ccc(/C=C/C(=O)c2ccc(F)cc2)cc1 [L3, ethyl (1E)-N-{4-[(1E)-3-(4-fluorophenyl)-3-oxoprop-1-en-1-yl]phenoxy}ethanimidate]								53 nM								
O=C(/C=C/c1ccc(ON=C2CCCCC2)cc1)c1ccc(F)cc1 [COE-6]	76.8 ± 3.98%	0.02 µM and 0.018 µM	-1.06 ± 1.84%	79.4 ± 3.97%	competitively inhibited	7.5 nM	reversible inhibitors		4 ± 0.021 µM	105.6 times and 105 times	2.33 times and 2.3 times	1.1 times	222.2	> 40000 nM	81.1%	19.7%
COc1ccc(C(=O)/C=C/c2ccc(ON=C(c3ccccc3)c3ccccc3)cc2)cc1 [COE-3]	87.3 ± 1%	0.048 ± 0.021 µM	21.6 ± 4.88%	77.1 ± 0.66%					> 10 µM				>208.3	> 40000 nM		
COc1ccc(/C=C/C(=N/Oc2ccc(C(C)=O)cc2)c2ccc(OC)cc2)cc1 [COE-17]	80.9 ± 2.01%	0.72 ± 0.015 µM	17.6 ± 2.77%	80.3 ± 1.39%					> 10 µM				>13.9	> 40000 nM		
